Assay results reported in patent US12338256B2, “Aza-tetracyclic oxazepine compounds and uses thereof” (Genentech, Inc., priority 2022, dated 2025).
Read-outs that look alike come from different tables or passages of the source.

Tests used:
[1] = test system: HPAC (homozygous mutant KRAS G12D human pancreatic cell line); test: KRAS 3D-Cell Proliferation Assay, HPAC (Example 503); assay type: cell-based; conditions: HPAC 3D culture, 7 days, CellTiter-Glo 3D, read-out: Prolif HPAC 3D ATP IC50
Description: (§1) Example 503: KRAS 3D-Cell Proliferation Assays. Cellular potencies of compounds are assessed by evaluating inhibition of proliferation in 3D cultures of homozygous mutant KRAS G12D human pancreatic cell lines (AsPC-1 and HPAC) as compared to a KRAS wild type human lung adenocarcinoma cell line (PC-9 and/or H1975). Cells are seeded into 384-well black round-bottom, ultra-low attachment assay plates in 50 uL cell growth medium (RPMI-1640 with 10% fetal bovine serum and 2 mM L-glutamine). After overnight incubation at 37° C. and 5% CO2, compounds solubilized in DMSO are added as dilution series to the wells in a total volume of 150 nL (0.3% DMSO final). The cells are incubated for 7 days at 37° C. and 5% CO2. Cell proliferation is quantitated by addition of 40 uL/well of CellTiter-GloÒ 3D (Promega), and the well contents are mixed 20× at high speed using liquid handling automation workstation (Bravo with 384-well head) and centrifuged at 1500 rpm for 2 minutes to eliminate bubbles. This reagent in combination with mechanical disruption releases the cellular ATP to promote activity in a luciferase-based enzyme/substrate chemiluminescent detection system. After a 30-minute incubation under ambient conditions with shaking and an additional 10 minutes without shaking, the luminescence is read on a plate reader (e.g., EnVision [PerkinElmer]). The results are normalized to percent inhibition based on the following control samples: DMSO (0% inhibition) and 1 μM staurosporine (100% inhibition). The normalized luminescence results are plotted against compound concentration, and the data are fit to a 4-parameter Hill equation to determine the IC50 values.

[2] = test system: H1975 (KRAS wild type human lung adenocarcinoma cell line); test: KRAS 3D-Cell Proliferation Assay, H1975 (Example 503); assay type: cell-based; conditions: H1975 3D culture, 7 days, CellTiter-Glo 3D, read-out: Prolif H1975 3D ATP IC50
Description: as §1

## Cc1c(F)c(N)cc(-c2nc3c4c(nc(OCC5CC6COCCN65)nc4c2F)N2C[C@H]4CC[C@H](N4)[C@H]2[C@H](C)O3)c1C(F)(F)F (single isomer, unassigned) [159 (diast. 1)]
[1]; Homo sapiens, HPAC, 168 h
  IC50: 36.9 nM

## Cc1nc(N)cc(-c2nc3c4c(nc(OCC5(CN6CC[C@@H](F)C6)CC5)nc4c2F)N2C[C@H]4CC[C@H](N4)[C@H]2[C@H](C)O3)c1C(F)(F)F [Compound 284, 4-((5S,5aS,6S,9R)-1-fluoro-12-((1-(((R)-3-fluoropyrrolidin-1-yl)methyl)cyclopropyl)methoxy)-5-methyl-5a,6,7,8,9,10-hexahydro-5H-4-oxa-3,10a,11,13,14-pentaaza-6,9-methanonaphtho[1,8-ab]heptalen-2-yl)-6-methyl-5-(trifluoromethyl)pyridin-2-amine]
[2]; Homo sapiens, NCI-H1975, 168 h
  IC50: 490 nM
[1]; Homo sapiens, HPAC, 168 h
  IC50: 1.23 nM

## C[C@@H]1Oc2nc(-c3cc(N)c(F)cc3C(C)(F)F)c(F)c3nc(OC[C@@]45CCCN4C[C@H](F)C5)nc(c23)N2C[C@H]3CC[C@H](N3)[C@@H]12 [Compound 73, 4-(1,1-difluoroethyl)-2-fluoro-5-((5S,5aS,6S,9R)-1-fluoro-12-(((2R,7aS)-2-fluorotetrahydro-1H-pyrrolizin-7a(5H)-yl)methoxy)-5-methyl-5a,6,7,8,9,10-hexahydro-5H-4-oxa-3,10a,11,13,14-pentaaza-6,9-methanonaphtho[1,8-ab]heptalen-2-yl)aniline]
[2]; Homo sapiens, NCI-H1975, 168 h
  IC50: 4090 nM
[1]; Homo sapiens, HPAC, 168 h
  IC50: 16.3 nM

## Cc1nc(N)cc(-c2nc3c4c(nc(OC[C@]56CCCN5CC(F)(F)C6)nc4c2F)N2C[C@H]4CC[C@H](N4)[C@H]2[C@H](C)O3)c1C(F)(F)F [Compound 217, 4-((5S,5aS,6S,9R)-12-(((R)-2,2-difluorotetrahydro-1H-pyrrolizin-7a(5H)-yl)methoxy)-1-fluoro-5-methyl-5a,6,7,8,9,10-hexahydro-5H-4-oxa-3,10a,11,13,14-pentaaza-6,9-methanonaphtho[1,8-ab]heptalen-2-yl)-6-methyl-5-(trifluoromethyl)pyridin-2-amine]
[2]; Homo sapiens, NCI-H1975, 168 h
  IC50: 12600 nM
[1]; Homo sapiens, HPAC, 168 h
  IC50: 38.8 nM

## Cc1nc(N)cc(-c2nc3c4c(nc(OCC56CCN5CC(F)(F)C6)nc4c2F)N2C[C@H]4CC[C@H](N4)[C@H]2[C@H](C(F)(F)F)O3)c1C(F)(F)F (single isomer, unassigned) [252 (isomer 2)]
[2]; Homo sapiens, NCI-H1975, 168 h
  IC50: 20000 nM
[1]; Homo sapiens, HPAC, 168 h
  IC50: 119 nM

## Cc1nc(N)cc(-c2nc3c4c(nc(OCC5(CN6CCOC7(CC7)C6)CC5)nc4c2F)N2C[C@H]4CC[C@H](N4)[C@H]2[C@H](C)O3)c1C(F)(F)F [Compound 212, 4-((5S,5aS,6S,9R)-12-((1-((4-Oxa-7-azaspiro[2.5]octan-7-yl)methyl)cyclopropyl)methoxy)-1-fluoro-5-methyl-5a,6,7,8,9,10-hexahydro-5H-4-oxa-3,10a,11,13,14-pentaaza[6,9]methanonaphtho[1,8-ab]heptalene-2-yl)-6-methyl-5-(trifluoromethyl)pyridin-2-amine]
[2]; Homo sapiens, NCI-H1975, 168 h
  IC50: 389 nM
[1]; Homo sapiens, HPAC, 168 h
  IC50: 1.64 nM

## Cc1nc(N)cc(-c2nc3c4c(nc(OCC5(CN6C[C@@H](C)O[C@@H](C)C6)CC5)nc4c2F)N2C[C@H]4CC[C@H](N4)[C@H]2[C@H](C)O3)c1C(F)(F)F [Compound 218, 4-((5S,5aS,6S,9R)-12-((1-(((2R,6S)-2,6-Dimethylmorpholino)methyl)cyclopropyl)methoxy)-1-fluoro-5-methyl-5a,6,7,8,9,10-hexahydro-5H-4-oxa-3,10a,11,13,14-pentaaza-6,9-methanonaphtho[1,8-ab]heptalen-2-yl)-6-methyl-5-(trifluoromethyl)pyridin-2-amine]
[2]; Homo sapiens, NCI-H1975, 168 h
  IC50: 384 nM
[1]; Homo sapiens, HPAC, 168 h
  IC50: 1.36 nM

## Cc1c(F)c(N)cc(-c2nc3c4c(nc(OCC56CCCN5CC(F)C6F)nc4c2F)N2CC4CCC(N4)C2C(C)O3)c1C(F)(F)F (single isomer, unassigned) [143 (isomer 3)]
[1]; Homo sapiens, HPAC, 168 h
  IC50: 4.77 nM

## Cc1c(F)c(N)cc(-c2nc3c4c(nc(OC[C@@]56CCCN5C[C@H](F)C6)nc4c2F)N2C[C@H]4CC[C@H](N4)[C@H]2[C@H](C(F)(F)F)O3)c1CC(F)F [Compound 250, 4-(2,2-Difluoroethyl)-2-fluoro-5-((5R,5aS,6S,9R)-1-fluoro-12-(((2R,7aS)-2-fluorotetrahydro-1H-pyrrolizin-7a(5H)-yl)methoxy)-5-(trifluoromethyl)-5a,6,7,8,9,10-hexahydro-5H-4-oxa-3,10a,11,13,14-pentaaza-6,9-methanonaphtho[1,8-ab]heptalene-2-yl)-3-methylaniline]
[2]; Homo sapiens, NCI-H1975, 168 h
  IC50: 994 nM
[1]; Homo sapiens, HPAC, 168 h
  IC50: 16.9 nM

## CO[C@@H]1CN(CC2(COc3nc4c5c(nc(-c6cc(N)nc(C)c6C(F)(F)F)c(F)c5n3)O[C@@H](C)[C@@H]3[C@@H]5CC[C@H](CN43)N5)CC2)C[C@@H]1F [Compound 290, 4-((5S,5aS,6S,9R)-1-fluoro-12-((1-(((3S,4R)-3-fluoro-4-methoxypyrrolidin-1-yl)methyl)cyclopropyl)methoxy)-5-methyl-5a,6,7,8,9,10-hexahydro-5H-4-oxa-3,10a,11,13,14-pentaaza-6,9-methanonaphtho[1,8-ab]heptalen-2-yl)-6-methyl-5-(trifluoromethyl)pyridin-2-amine]
[2]; Homo sapiens, NCI-H1975, 168 h
  IC50: 2780 nM
[1]; Homo sapiens, HPAC, 168 h
  IC50: 2.53 nM

## C#Cc1c(F)ccc2cc(N)cc(-c3nc4c5c(nc(OC[C@]67CCN6CC(F)(F)C7)nc5c3F)N3C[C@H]5CC[C@H](N5)[C@H]3[C@H](C)O4)c12 [Compound 110, 4-((5S,5aS,6S,9R)-12-(((R)-3,3-Difluoro-1-azabicyclo[3.2.0]heptan-5-yl)methoxy)-1-fluoro-5-methyl-5a,6,7,8,9,10-hexahydro-5H-4-oxa-3,10a,11,13,14-pentaaza-6,9-methanonaphtho[1,8-ab]heptalen-2-yl)-5-ethynyl-6-fluoronaphthalen-2-amine]
[2]; Homo sapiens, NCI-H1975, 168 h
  IC50: 587 nM
[1]; Homo sapiens, HPAC, 168 h
  IC50: 2.58 nM

## C[C@@H]1Oc2nc(-c3cc(N)c(F)cc3[C@H](C)C(F)F)c(F)c3nc(OC[C@@]45CCCN4C[C@H](F)C5)nc(c23)N2C[C@H]3CC[C@H](N3)[C@@H]12 (single isomer, unassigned) [181 (isomer 1)]
[2]; Homo sapiens, NCI-H1975, 168 h
  IC50: 12300 nM

## Cc1nc(N)cc(-c2nc3c4c(nc(OCC5(CN6CC7(CCCO7)C6)CC5)nc4c2F)N2C[C@H]4CC[C@H](N4)[C@H]2[C@H](C)O3)c1C(F)(F)F [Compound 281, 4-((5S,5aS,6S,9R)-12-((1-((5-oxa-2-azaspiro[3.4]octan-2-yl)methyl)cyclopropyl)methoxy)-1-fluoro-5-methyl-5a,6,7,8,9,10-hexahydro-5H-4-oxa-3,10a,11,13,14-pentaaza[6,9]methanonaphtho[1,8-ab]heptalene-2-yl)-6-methyl-5-(trifluoromethyl)pyridin-2-amine]
[2]; Homo sapiens, NCI-H1975, 168 h
  IC50: 2430 nM
[1]; Homo sapiens, HPAC, 168 h
  IC50: 8.6 nM

## Cc1c(F)c(N)nc(-c2nc3c4c(nc(OC[C@@]56CCCN5C[C@H](F)C6)nc4c2F)N2C[C@H]4CC[C@H](N4)[C@H]2[C@H](C)O3)c1C(F)(F)F [Compound 191, 3-Fluoro-6-((5S,5aS,6S,9R)-1-fluoro-12-(((2R,7aS)-2-fluorotetrahydro-1H-pyrrolizin-7a(5H)-yl)methoxy)-5-methyl-5a,6,7,8,9,10-hexahydro-5H-4-oxa-3,10a,11,13,14-pentaaza-6,9-methanonaphtho[1,8-ab]heptalen-2-yl)-4-methyl-5-(trifluoromethyl)pyridin-2-amine]
[2]; Homo sapiens, NCI-H1975, 168 h
  IC50: 1410 nM
[1]; Homo sapiens, HPAC, 168 h
  IC50: 29.6 nM

## Cc1nc(N)cc(-c2nc3c4c(nc(OCC5N(C)CC56CC6(F)F)nc4c2F)N2CC4CCC(N4)C2C(C(F)(F)F)O3)c1C(F)(F)F (single isomer, unassigned) [262 (isomer 2)]
[1]; Homo sapiens, HPAC, 168 h
  IC50: 123 nM

## Cc1c(F)c(N)cc(-c2nc3c4c(nc(OC[C@]5(CN6C[C@H]7C[C@@H]6CO7)CC5(F)F)nc4c2F)N2C[C@H]4CC[C@H](N4)[C@H]2[C@H](C)O3)c1C(F)(F)F (single isomer, unassigned) [166 a]
[1]
  IC50: 1.44 nM

## Cc1c(F)c(N)cc(-c2nc3c4c(nc(OCC56CCCN5CCN(C)C6=O)nc4c2F)N2C[C@H]4CC[C@H](N4)[C@H]2[C@H](C)O3)c1C(F)(F)F (single isomer, unassigned) [137 (isomer 2)]
[2]
  IC50: 20000 nM

## Cc1c(F)c(N)cc(-c2nc3c4c(nc(OCC5CCC6CN(C)C(=O)CN56)nc4c2F)N2CC4CCC(N4)C2C(C)O3)c1C(F)(F)F (single isomer, unassigned) [131 (isomer 4)]
[2]; Homo sapiens, NCI-H1975, 168 h
  IC50: 6810 nM

## Cc1c(F)c(N)cc(-c2nc3c4c(nc(OC[C@@]56CCCN5C[C@H](F)C6)nc4c2F)N2C[C@H]4CC[C@H](N4)C2C(C(F)F)O3)c1C(F)(F)F (single isomer, unassigned) [238 (isomer 2)]
[1]
  IC50: 2000 nM

## Cc1c(F)c(N)cc(-c2nc3c4c(nc(OCC5COCC6CCCN65)nc4c2F)N2CC4CCC(N4)C2C(C)O3)c1C(F)(F)F (single isomer, unassigned) [121 (isomer 1)]
[1]; Homo sapiens, HPAC, 168 h
  IC50: 12.5 nM
